According to patent US20040002457A1, “Inhibition of virus anchorage by RGG domain of a cell surface-expressed protein, polynucleotide coding for said RGG domain, therapeutic uses thereof by inhibition of microorganism or protein ligand binding to the cell-surface-expressed protein” (priority 2002, published 2004):
Like-named read-outs stand apart in the source and are kept apart here. No end group written: not given here.

How the values were obtained:
HIV particles = conditions: CD4+ target cells (refs 1, 4, 13, 26); cited from earlier work
HIV-1 LAI [1] = conditions: cited from earlier work
RGG domain of nucleolin = experiment: Biotinylated HB-19A binding to GST constructs of nucleolin containing the RGG domain; parameters: species or system human; conditions: constructs containing the RGG domain (FIG. 8, lanes 1234G, R234G, G)
Sequence of RGG domain of nucleolin (P19338 648-710 limits assumed): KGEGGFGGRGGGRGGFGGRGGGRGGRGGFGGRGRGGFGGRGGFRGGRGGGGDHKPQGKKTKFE
Protocol: Expression and purification of recombinant nucleolin constructs. Escherichia coli (E. coli) BL21 (DE3) cells were transformed with each pGEX-N3 plasmid coding for truncated derivatives of the C-terminal part of human nucleolin. Cells were grown overnight at 37° C. in 100 ml of Terrific Broth containing 100 μg of ampicillin per ml. After 1:50 dilution in 100 ml of fresh medium, cells were grown at 30° C. to a 600 nm optical density of approximately 0.5 (6 h) and induced with 0.5 mM isopropyl-1-thio-D-galactopyranoside (IPTG) for an additional 2 h. Bacteria were pelleted at 4,000 g for 10 min at 4° C., resuspended in 5 ml of PBS containing 0.2 mM phenylmethylsulphonyl flouride (PMSF) and 1 mM DTT, and frozen at −20° C. overnight. […] The presence of proteins in cell extracts was monitored by SDS-Page with Coomassie blue staining, and their respective concentration estimated and adjusted.
To assay HB-19A binding capacity, bacterial extracts were first diluted 5-fold in PBS-EDTA before centrifugation at 12,000 g for 10 min at 4° C. […] The purified proteins were eluted by heating in the electrophoresis sample buffer containing SDS and analyzed by immunoblotting using anti-GST monoclonal antibody B-14 (Santa Cruz Biotechnology, Inc.).

HIV = conditions: 1 μM HB-19A, different types of cells (refs 1, 10); cited from earlier work
CHO 618 cells = experiment: Biotinylated HB-19A binding to mutant CHO 618 cells; parameters: species or system Chinese hamster; conditions: CHO 618 devoid of heparan- and chondroitin-sulfate proteoglycans (FIG. 3B)
Protocol: (§1) Assay of HB-19A binding to cells. Cells were plated at 10^4 cells/well in 96-well-plates for the ^1251-labeled HB-19A binding or at 10^5 cells/well, in 24-well-plates for the biotinylated HB-19A binding. Twenty four hours later, binding experiments were performed after incubation of the cell monolayers in fresh culture medium for 1 h at room temperature (about 21° C.) in order to cool cells. It should be noted that intracellular entry of HB-19A is inhibited more than 90% at room temperature. Cells were incubated (30 min at room temperature) with different concentrations of the ^125I-labeled HB-19A or the biotinylated HB-19A before washing cells in culture medium containing 10% FCS. For total amount of binding (specific and non-specific), cells were washed 7 times with culture medium. For specific binding measurements, cells were first washed 3 times in culture medium supplemented with 150 mM NaCl thus bringing the final concentration of NaCl to 300 mM followed by 4 washings in culture medium. Washed cells were processed to reveal either the ^125I-labeled HB-19A or the biotinylated HB-19A. For the ^1251-labeled HB-19A binding, cell monolayers were extracted in 1% SDS and the radioactivity was measured in an automatic gamma counter (LKB Wallac Clini Gamma 1272). […] Finally, ortho-phenylenediamine solution was added in the dark and the absorbance was measured at 405 nm.

full-length nucleolin = target: T1, full-length nucleolin (Homo sapiens, UniProt P19338); experiment: Biotinylated HB-19A binding to in vitro translated full-length nucleolin (avidin-agarose); conditions: amino acids 1 to 707, 0.5 or 1 μM biotinylated HB-19A (FIG. 6)
T1 construct: labeled full length nucleolin, N-terminal and the C-terminal parts containing amino acids 1 to 707; vector-encoded His leader of pcDNA4His/Max C (only the vector name is printed); made in house; host or cells: cell-free: TNT coupled rabbit reticulocyte lysate (Promega), 35S-Met/Cys labelled, used crude
T1 sequence (P19338 whole entry, the tested form may be a part): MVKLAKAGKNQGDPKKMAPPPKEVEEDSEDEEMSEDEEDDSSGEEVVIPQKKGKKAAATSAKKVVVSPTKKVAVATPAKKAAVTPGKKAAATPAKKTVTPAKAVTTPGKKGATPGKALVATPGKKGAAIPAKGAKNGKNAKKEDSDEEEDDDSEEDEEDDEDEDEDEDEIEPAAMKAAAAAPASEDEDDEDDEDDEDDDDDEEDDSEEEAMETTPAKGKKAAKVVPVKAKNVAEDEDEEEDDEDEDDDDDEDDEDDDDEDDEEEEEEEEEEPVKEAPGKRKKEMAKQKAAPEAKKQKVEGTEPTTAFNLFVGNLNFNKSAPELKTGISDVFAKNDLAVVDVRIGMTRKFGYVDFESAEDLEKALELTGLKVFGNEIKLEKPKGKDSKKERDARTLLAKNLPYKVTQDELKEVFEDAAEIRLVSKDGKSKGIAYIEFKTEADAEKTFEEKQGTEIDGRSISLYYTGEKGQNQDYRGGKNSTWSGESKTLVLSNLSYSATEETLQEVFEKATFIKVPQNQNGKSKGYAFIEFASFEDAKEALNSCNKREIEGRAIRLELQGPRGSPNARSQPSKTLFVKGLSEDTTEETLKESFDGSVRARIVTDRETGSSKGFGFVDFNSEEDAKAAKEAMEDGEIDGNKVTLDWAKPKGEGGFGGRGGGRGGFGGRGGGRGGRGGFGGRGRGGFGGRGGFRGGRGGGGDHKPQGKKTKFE
Protocol: (§2) In vitro transcription and translation of human nucleolin. The TNT coupled reticulocyte lysate system (Promega) was used to produce the wild-type nucleolin (pcDNA4 Nuc) and the N- and C-terminal parts of nucleolin (pcDNA4 NucN and pcDNA4 NucC containing amino acids 1-308 and 309-707) by in vitro transcription/translation. Reactions were performed by using 2 μg of each plasmid and 20 μCi of […].
(§3) To assay the HB-19A binding capacity of the generated nucleolin and nucleolin truncated constructs, 25 μl of translation products were diluted in 25 μl of modified BI buffer (20 mM Tris-HCl, pH 7.6,100 mM NaCl, 50 mM KCl, 2 mM EDTA, 2% Triton X-100,1000 U/ml aprotinin), centrifuged at 12,000 g for 10 min at 4° C. and diluted in 150 μl of PBS. Binding reactions were performed by incubating 200 μl of each diluted lysates with the biotinylated HB-19A for 1 h at 4° C. Complexes formed between nucleolin deletion constructs and biotinylated HB-19A were isolated by purification of the extracts using avidin-agarose (100 μl) in PBS-EDTA (12). After 2 h of incubation at 4° C., the samples were washed extensively with PBS-EDTA. The purified proteins were eluted by heating in the electrophoresis sample buffer containing SDS and analyzed by SDS-PAGE.

[2] = test system: C-terminal part of nucleolin; experiment: Biotinylated HB-19A binding to in vitro translated C-terminal part of nucleolin; parameters: species or system human; conditions: amino acids 309-707 (FIG. 6)
Sequence of C-terminal part of nucleolin (P19338 312-710 limits assumed): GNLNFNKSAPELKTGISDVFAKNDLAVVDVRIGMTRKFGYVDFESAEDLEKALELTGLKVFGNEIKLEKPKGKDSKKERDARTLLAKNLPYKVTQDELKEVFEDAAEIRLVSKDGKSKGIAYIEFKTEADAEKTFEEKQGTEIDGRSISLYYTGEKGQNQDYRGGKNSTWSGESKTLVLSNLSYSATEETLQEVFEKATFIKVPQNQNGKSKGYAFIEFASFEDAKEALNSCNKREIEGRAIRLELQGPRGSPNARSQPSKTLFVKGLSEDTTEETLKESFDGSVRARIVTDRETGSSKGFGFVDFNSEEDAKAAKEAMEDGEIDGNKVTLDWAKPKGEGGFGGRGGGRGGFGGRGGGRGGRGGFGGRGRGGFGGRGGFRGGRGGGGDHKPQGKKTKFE
Protocol: as §2, §3

CHO K1 cells = experiment: Biotinylated HB-19A binding to wild type CHO K1 cells; parameters: species or system Chinese hamster; conditions: wild type CHO K1 cells (FIG. 3B)
Protocol: as §1

HIV-1 LAI [3] = experiment: HIV-1 LAI infection in HeLa P4 cells (LTR-lacZ, β-galactosidase); type: cell-based; conditions: HB-19A 1 μM (FIG. 9)
Protocol: Assay of HIV infection in HeLa CD4+cells. HIV-1 LAI infection was monitored indirectly in HeLa-CD4-LTR-/ac Z cells (HeLa P4 cells) containing the bacterial lac Z gene under the control of HIV-1 LTR. HIV-1 entry and replication result in the activation of the HIV-1 LTR leading to the expression of p-galactosidase. At 48 h post-infection, cells were lysed and assayed for β-galactosidase activity using the chlorophenol-red-β-D-galactopyranoside as a substrate. The optical density was measured at 570 nm (1). The HIV-1 Ba-L infection was monitored in HeLa-CD4-LTR-/ac Z cells but expressing also CCR5 (HeLa F4-C5 cells) as above (1).
Assay of peptides for their activity. Each peptide is tested at different concentrations to investigate their capacity to inhibit HIV infection. Each peptide is investigated for its binding capacity to the HB-19, using biotin-coupled HB-19.

[4] = target: T2, N-terminal part of nucleolin (Homo sapiens, UniProt P19338); experiment: Biotinylated HB-19A binding to in vitro translated N-terminal part of nucleolin; conditions: amino acids 1 to 308, contains the acidic stretches (FIG. 6)
T2 construct: pcDNA4 NucN and pcDNA4 NucC containing amino acids 1-308 and 309-707; vector-encoded His leader of pcDNA4His/Max C (only the vector name is printed); made in house; host or cells: cell-free: TNT coupled rabbit reticulocyte lysate (Promega), 35S-Met/Cys labelled, used crude
T2 sequence (P19338 1-308): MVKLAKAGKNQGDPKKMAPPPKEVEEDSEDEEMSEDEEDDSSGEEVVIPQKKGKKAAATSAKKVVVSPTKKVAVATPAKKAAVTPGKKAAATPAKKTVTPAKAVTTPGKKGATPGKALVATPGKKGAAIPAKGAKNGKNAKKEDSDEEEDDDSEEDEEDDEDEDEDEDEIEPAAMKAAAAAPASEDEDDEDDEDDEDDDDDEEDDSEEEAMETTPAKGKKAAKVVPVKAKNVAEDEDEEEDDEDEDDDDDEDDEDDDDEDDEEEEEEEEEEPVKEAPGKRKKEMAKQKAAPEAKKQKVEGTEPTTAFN
Protocol: as §2, §3

HeLa P4 cells = experiment: HB-19A binding to HeLa P4 cells (125I-labeled HB-19A); parameters: species or system human; conditions: HeLa P4 cells washed at 300 mM NaCl (FIG. 3A)
Protocol: as §1

fibroblast growth factor 2: growth factor which binds heparan sulfate proteoglycans
anchorage of HIV particles (HIV particles): inhibited

5[Kψ(CH2N)PR]-TASP [HB-19]
anchorage of HIV particles (HIV particles): inhibited
HIV entry at the level of HIV attachment, pretreatment of cells (HIV-1 LAI [1]; HeLa P4 cells (refs 1, 4)): inhibition of HIV entry
resistance to HIV of pretreated cells after removal of the medium containing the inhibitor (HIV-1 LAI [1]; several hours after removal (ref 1)): remain resistant

RRWCYRKDKPYRKCR [TW70, anti-HIV cyclic peptide specific for CXCR4, reference compound]
anchorage of HIV particles (HIV particles): inhibited

HB-19A: new generation of HB-19 presenting pentavalently the Kψ(CH2N)PR moiety coupled to a modified TASP template (peptide Lys-Pro-Arg; chain KKKKA; also: Kψ(CH2N)P reduced bond, pentavalent on modified TASP template)
HB-19A concentration at which binding reaches maximum value (RGG domain of nucleolin): 5 µM
inhibition of HIV infection (HIV): more than 95%
HB-19A binding profile compared with CHO K1 (CHO 618 cells): no significant difference
binding to full-length nucleolin (full-length nucleolin): bind
anchorage of HIV particles (HIV particles): inhibited
binding to C-terminal part of nucleolin [2]: bound efficiently
concentration at which binding reaches saturation (CHO K1 cells): 1 µM
HIV entry at the level of HIV attachment, pretreatment of cells (HIV-1 LAI [3]): inhibition of HIV entry
binding to N-terminal part of nucleolin [4]: did not bind at all
concentration at which specific binding reaches saturation (HeLa P4 cells): 1 µM
